This note sets out measurements from publication PMC5218480 (PLoS ONE, 2017).

This assay has as its system MV-4-11 cells. The experiment in a line: Gene expression microarray analysis (Affymetrix PrimeView) and GSEA. The class given is cell-based, human. On the set-up: RFU PODN (11730768_x_at) / Fold change /veh PODN (11730768_x_at) / RFU LINC00158 (11744669_a_at) / Fold change /veh LINC00158 (11744669_a_at) / RFU DUSP10 (11751237_a_at) / Fold change /veh DUSP10 (11751237_a_at) / RFU ID3 (11757404_x_at) / Fold change /veh ID3 (11757404_x_at) / RFU PLEKHG5 (11737974_s_at) / Fold change /veh PLEKHG5 (11737974_s_at) / RFU LRRC4B (11730491_at) / Fold change /veh LRRC4B (11730491_at) / RFU GIMAP4 (11747438_a_at) / Fold change /veh GIMAP4 (11747438_a_at) / RFU KRT8 (11758183_x_at) / Fold change /veh KRT8 (11758183_x_at) / RFU CNN1 (11734310_a_at) / Fold change /veh CNN1 (11734310_a_at) / RFU VPS37D (11726825_at) / Fold change /veh VPS37D (11726825_at) / RFU C10orf10 (11716522_x_at) / Fold change /veh C10orf10 (11716522_x_at) / RFU KIR2DL2 /// KIR2DL4 /// KIR2DL5A /// KIR2DL5B /// KIR2DS1 /// KIR2DS2 /// KIR2DS3 /// KIR2DS4 /// KIR3DL3 /// KIR3DL3 /// KIR3DS1 (11738374_at) / Fold change /veh KIR2DL2 /// KIR2DL4 /// KIR2DL5A /// KIR2DL5B /// KIR2DS1 /// KIR2DS2 /// KIR2DS3 /// KIR2DS4 /// KIR3DL3 /// KIR3DL3 /// KIR3DS1 (11738374_at) / RFU C1QL1 (11718748_at) / Fold change /veh C1QL1 (11718748_at) / RFU TMPRSS4 (11747572_a_at) / Fold change /veh TMPRSS4 (11747572_a_at) / RFU HAMP (11756126_x_at) / Fold change /veh HAMP (11756126_x_at) / RFU RNFT2 (11725882_a_at) / Fold change /veh RNFT2 (11725882_a_at) / RFU NR4A2 (11747474_a_at) / Fold change /veh NR4A2 (11747474_a_at) / RFU ABCC12 (11746883_a_at) / Fold change /veh ABCC12 (11746883_a_at) / RFU TMEM136 (11760407_x_at) / Fold change /veh TMEM136 (11760407_x_at) / RFU CLDN22 /// WWC2 (11732394_at) / Fold change /veh CLDN22 /// WWC2 (11732394_at) / RFU HLA-DPB1 (11760878_x_at) / Fold change /veh HLA-DPB1 (11760878_x_at) / RFU SPINT1 (11716480_a_at) / Fold change /veh SPINT1 (11716480_a_at) / RFU GAP43 (11754022_s_at) / Fold change /veh GAP43 (11754022_s_at) / RFU A4GNT (11735810_at) / Fold change /veh A4GNT (11735810_at) / RFU PRB3 (11715151_x_at) / Fold change /veh PRB3 (11715151_x_at) / RFU TUBB4B (11761932_at) / Fold change /veh TUBB4B (11761932_at) / RFU CAPN14 (11732068_a_at) / Fold change /veh CAPN14 (11732068_a_at) / RFU TMCC2 (11721928_a_at) / Fold change /veh TMCC2 (11721928_a_at) / RFU IRGQ (11745062_a_at) / Fold change /veh IRGQ (11745062_a_at) / RFU FAM174B (11720279_a_at) / Fold change /veh FAM174B (11720279_a_at) / RFU TMPRSS4 (11748680_a_at) / Fold change /veh TMPRSS4 (11748680_a_at) / RFU FAM212B (11763350_a_at) / Fold change /veh FAM212B (11763350_a_at) / RFU PLEKHG5 (11743358_a_at) / Fold change /veh PLEKHG5 (11743358_a_at) / RFU ZSCAN30 (11745921_a_at) / Fold change /veh ZSCAN30 (11745921_a_at) / RFU CMKLR1 (11741424_a_at) / Fold change /veh CMKLR1 (11741424_a_at) / RFU LOC101060620 /// MAPK8IP1 (11723275_at) / Fold change /veh LOC101060620 /// MAPK8IP1 (11723275_at) / RFU SPTSSB (11747773_x_at) / Fold change /veh SPTSSB (11747773_x_at) / RFU PRSS12 (11739890_at) / Fold change /veh PRSS12 (11739890_at) / RFU BIN1 (11741810_x_at) / Fold change /veh BIN1 (11741810_x_at) / RFU WNT11 (11732464_a_at) / Fold change /veh WNT11 (11732464_a_at) / RFU C10orf10 (11716521_a_at) / Fold change /veh C10orf10 (11716521_a_at) / RFU C5orf56 (11738089_at) / Fold change /veh C5orf56 (11738089_at) / RFU CYB561 (11721691_x_at) / Fold change /veh CYB561 (11721691_x_at) / RFU ANKRD19P (11752326_a_at) / Fold change /veh ANKRD19P (11752326_a_at) / RFU OR2T12 /// OR2T33 /// OR2T8 (11738714_s_at) / Fold change /veh OR2T12 /// OR2T33 /// OR2T8 (11738714_s_at) / RFU VCAN (11748164_a_at) / Fold change /veh VCAN (11748164_a_at) / RFU JSRP1 (11732532_at) / Fold change /veh JSRP1 (11732532_at) / RFU KRTAP10-11 (11738290_x_at) / Fold change /veh KRTAP10-11 (11738290_x_at) / RFU MYO3A (11730013_a_at) / Fold change /veh MYO3A (11730013_a_at) / RFU EBF3 (11725865_a_at) / Fold change /veh EBF3 (11725865_a_at) / RFU CAMK2N1 (11719241_x_at) / Fold change /veh CAMK2N1 (11719241_x_at) / RFU C5orf56 (11738088_a_at) / Fold change /veh C5orf56 (11738088_a_at) / RFU OLFML3 (11715873_a_at) / Fold change /veh OLFML3 (11715873_a_at) / RFU LOC100653217 /// NTM (11731650_a_at) / Fold change /veh LOC100653217 /// NTM (11731650_a_at) / RFU MAPK11 (11762145_a_at) / Fold change /veh MAPK11 (11762145_a_at) / RFU FIZ1 (11724087_x_at) / Fold change /veh FIZ1 (11724087_x_at) / RFU OASL (11726364_x_at) / Fold change /veh OASL (11726364_x_at) / RFU SOX15 (11748057_x_at) / Fold change /veh SOX15 (11748057_x_at) / RFU CD79A (11719716_a_at) / Fold change /veh CD79A (11719716_a_at) / RFU HIST1H1D (11736915_at) / Fold change /veh HIST1H1D (11736915_at) / RFU CASKIN2 (11723855_a_at) / Fold change /veh CASKIN2 (11723855_a_at) / RFU LOC730098 (11760151_x_at) / Fold change /veh LOC730098 (11760151_x_at) / RFU OR4N2 (11742367_at) / Fold change /veh OR4N2 (11742367_at) / RFU PRRT2 (11749266_a_at) / Fold change /veh PRRT2 (11749266_a_at) / RFU SNX32 (11753110_a_at) / Fold change /veh SNX32 (11753110_a_at) / RFU CDHR5 (11726645_a_at) / Fold change /veh CDHR5 (11726645_a_at) / RFU RCAN1 (11760418_a_at) / Fold change /veh RCAN1 (11760418_a_at) / RFU FAM167A (11723789_a_at) / Fold change /veh FAM167A (11723789_a_at) / RFU FAM26E (11764081_at) / Fold change /veh FAM26E (11764081_at) / RFU ISYNA1 (11749810_s_at) / Fold change /veh ISYNA1 (11749810_s_at) / RFU ACY1 (11761880_at) / Fold change /veh ACY1 (11761880_at) / RFU 11764098_at / Fold change /veh 11764098_at / RFU SAMD14 (11745864_x_at) / Fold change /veh SAMD14 (11745864_x_at) / RFU NPB (11741838_a_at) / Fold change /veh NPB (11741838_a_at) / RFU TMPRSS6 (11731388_a_at) / Fold change /veh TMPRSS6 (11731388_a_at) / RFU KRTAP10-2 (11738614_at) / Fold change /veh KRTAP10-2 (11738614_at) / RFU ARHGAP8 /// PRR5-ARHGAP8 (11727945_x_at) / Fold change /veh ARHGAP8 /// PRR5-ARHGAP8 (11727945_x_at) / RFU KRTAP5-7 /// NADSYN1 (11734609_at) / Fold change /veh KRTAP5-7 /// NADSYN1 (11734609_at) / RFU RASL12 (11751679_a_at) / Fold change /veh RASL12 (11751679_a_at) / RFU CDKN2B (11736163_a_at) / Fold change /veh CDKN2B (11736163_a_at) / RFU PRF1 (11729649_at) / Fold change /veh PRF1 (11729649_at) / RFU, ZNF638 /// ZNF638-IT1 / Fold change vs veh, ZNF638 /// ZNF638-IT1 / RFU, PANK3 / Fold change vs veh, PANK3 / RFU, SH3YL1 / Fold change vs veh, SH3YL1 / RFU, ZEB2 / Fold change vs veh, ZEB2 / RFU, NRIP1 / Fold change vs veh, NRIP1 / RFU, PTTG1IP / Fold change vs veh, PTTG1IP / RFU, CAPN2 / Fold change vs veh, CAPN2 / RFU, MED14 / Fold change vs veh, MED14 / RFU, SNORA58 / Fold change vs veh, SNORA58 / RFU, C1orf63 / Fold change vs veh, C1orf63 / RFU, LRRFIP1 / Fold change vs veh, LRRFIP1 / RFU, NDUFAF7 / Fold change vs veh, NDUFAF7 / RFU, SLC12A2 / Fold change vs veh, SLC12A2 / RFU, IBTK / Fold change vs veh, IBTK / RFU, ESF1 / Fold change vs veh, ESF1 / Fold change vs veh, TMEM50B / RFU, TAOK1 / Fold change vs veh, TAOK1 / RFU, ACBD3 / Fold change vs veh, ACBD3 / RFU, TMA16 / Fold change vs veh, TMA16 / RFU, RWDD3 / Fold change vs veh, RWDD3 / RFU, BCAT1 / Fold change vs veh, BCAT1 / RFU, EDEM3 / Fold change vs veh, EDEM3 / RFU, TMEM33 / Fold change vs veh, TMEM33 / RFU, WDR75 / Fold change vs veh, WDR75 / RFU, AHCTF1 / Fold change vs veh, AHCTF1 / RFU, TFRC / Fold change vs veh, TFRC / RFU, ZDHHC17 / Fold change vs veh, ZDHHC17 / RFU, NOM1 / Fold change vs veh, NOM1 / RFU, ARL8B / Fold change vs veh, ARL8B / RFU, ZBTB11 / Fold change vs veh, ZBTB11 / RFU, TAMM41 / Fold change vs veh, TAMM41 / RFU, KIAA1704 /// LOC100996395 / Fold change vs veh, KIAA1704 /// LOC100996395 / RFU, ING1 / Fold change vs veh, ING1 / RFU, TRMT61B / Fold change vs veh, TRMT61B / RFU, FUBP3 / Fold change vs veh, FUBP3 / RFU, TP53 / Fold change vs veh, TP53 / RFU, TNKS2 / Fold change vs veh, TNKS2 / RFU, ZFP14 / Fold change vs veh, ZFP14 / RFU, ACTR2 / Fold change vs veh, ACTR2 / RFU, PPP3R1 / Fold change vs veh, PPP3R1 / RFU, PIK3R1 / Fold change vs veh, PIK3R1 / RFU, HNRNPA1 / Fold change vs veh, HNRNPA1 / RFU, RNF170 / Fold change vs veh, RNF170 / RFU, ZNF28 / Fold change vs veh, ZNF28 / RFU, RNGTT / Fold change vs veh, RNGTT / RFU, OGT / Fold change vs veh, OGT / RFU, BRD1 / Fold change vs veh, BRD1 / RFU, MARS / Fold change vs veh, MARS / RFU, ZNF655 / Fold change vs veh, ZNF655 / RFU, FAHD1 / Fold change vs veh, FAHD1 / RFU, BDP1 / Fold change vs veh, BDP1 / RFU, LRRCC1 / Fold change vs veh, LRRCC1 / RFU, ARID1A / Fold change vs veh, ARID1A / RFU, ZNF146 / Fold change vs veh, ZNF146 / RFU, ZNF330 / Fold change vs veh, ZNF330 / RFU, GPN3 / Fold change vs veh, GPN3 / RFU, C9orf123 / Fold change vs veh, C9orf123 / RFU, N4BP2L2 / Fold change vs veh, N4BP2L2 / RFU, ARFIP1 / Fold change vs veh, ARFIP1 / RFU, FAM179B / Fold change vs veh, FAM179B / RFU, BCL10 / Fold change vs veh, BCL10 / RFU, UHRF1BP1L / Fold change vs veh, UHRF1BP1L / RFU, BET1 / Fold change vs veh, BET1 / RFU, CNOT2 / Fold change vs veh, CNOT2 / RFU, ZNF268 / Fold change vs veh, ZNF268 / Fold change vs veh, ZNF507 / RFU, DGCR2 / Fold change vs veh, DGCR2 / RFU, WDSUB1 / Fold change vs veh, WDSUB1 / Fold change vs veh, HSP90B1 /// MIR3652 / RFU, ADSS / Fold change vs veh, ADSS / RFU, GK / Fold change vs veh, GK / RFU, ZNF148 / Fold change vs veh, ZNF148 / RFU, TAF9 / Fold change vs veh, TAF9 / RFU, SLC1A5 / Fold change vs veh, SLC1A5 / RFU, SLMO2 / Fold change vs veh, SLMO2 / RFU, ABCC4 / Fold change vs veh, ABCC4 / RFU, LOC101060439 /// RAP1B / Fold change vs veh, LOC101060439 /// RAP1B / RFU, RFX7 / Fold change vs veh, RFX7 / RFU, GTPBP10 / Fold change vs veh, GTPBP10 / RFU, CNEP1R1 / Fold change vs veh, CNEP1R1 / RFU, BIVM-ERCC5 /// ERCC5 / Fold change vs veh, BIVM-ERCC5 /// ERCC5 / RFU, ILF3 / Fold change vs veh, ILF3 / RFU 11762660_at / Fold change /veh 11762660_at / RFU VCAN (11757783_s_at) / Fold change /veh VCAN (11757783_s_at) / RFU DDX43 (11728927_at) / Fold change /veh DDX43 (11728927_at) / RFU KRT8 (11758188_x_at) / Fold change /veh KRT8 (11758188_x_at) / RFU NKD1 (11759106_at) / Fold change /veh NKD1 (11759106_at) / RFU SRD5A1 (11742802_a_at) / Fold change /veh SRD5A1 (11742802_a_at) / RFU TPSAB1 /// TPSB2 (11721975_s_at) / Fold change /veh TPSAB1 /// TPSB2 (11721975_s_at) / RFU GSTM3 (11746129_a_at) / Fold change /veh GSTM3 (11746129_a_at) / RFU IL23R (11737362_x_at) / Fold change /veh IL23R (11737362_x_at) / RFU TMEM51 (11727254_a_at) / Fold change /veh TMEM51 (11727254_a_at) / RFU PIWIL2 (11732686_x_at) / Fold change /veh PIWIL2 (11732686_x_at) / RFU ORM1 (11744905_x_at) / Fold change /veh ORM1 (11744905_x_at) / RFU CCDC152 (11743942_at) / Fold change /veh CCDC152 (11743942_at) / RFU ECM1 (11717891_a_at) / Fold change /veh ECM1 (11717891_a_at) / RFU IL23R (11748794_a_at) / Fold change /veh IL23R (11748794_a_at) / RFU TNFAIP8L3 (11732012_x_at) / Fold change /veh TNFAIP8L3 (11732012_x_at) / RFU MBOAT4 (11741988_at) / Fold change /veh MBOAT4 (11741988_at) / RFU 11764193_at / Fold change /veh 11764193_at / RFU TMEM53 (11763286_at) / Fold change /veh TMEM53 (11763286_at) / RFU MAGEB2 (11727129_at) / Fold change /veh MAGEB2 (11727129_at) / RFU TMEM200A (11744735_a_at) / Fold change /veh TMEM200A (11744735_a_at) / RFU CCDC152 (11751479_a_at) / Fold change /veh CCDC152 (11751479_a_at) / RFU FAM211A (11726209_a_at) / Fold change /veh FAM211A (11726209_a_at) / RFU RGS16 (11746705_a_at) / Fold change /veh RGS16 (11746705_a_at) / RFU VCAN (11755009_s_at) / Fold change /veh VCAN (11755009_s_at) / RFU RHOB (11743442_s_at) / Fold change /veh RHOB (11743442_s_at) / RFU RGS16 (11720943_a_at) / Fold change /veh RGS16 (11720943_a_at) / RFU RGS16 (11720944_at) / Fold change /veh RGS16 (11720944_at) / RFU, VPS4B / Fold change vs veh, VPS4B / RFU, CREB1 / Fold change vs veh, CREB1 / RFU, DNAJC13 / Fold change vs veh, DNAJC13 / RFU, GNAQ / Fold change vs veh, GNAQ / RFU, CDK5R1 / Fold change vs veh, CDK5R1 / RFU, ZRANB3 / Fold change vs veh, ZRANB3 / RFU, CUL4A / Fold change vs veh, CUL4A / RFU, CCNY / Fold change vs veh, CCNY / RFU, UFL1 / Fold change vs veh, UFL1 / RFU, COG3 / Fold change vs veh, COG3 / RFU, DIAPH2 / Fold change vs veh, DIAPH2 / RFU, SKA2 / Fold change vs veh, SKA2 / RFU, AFF3 / Fold change vs veh, AFF3 / RFU, LMF1 / Fold change vs veh, LMF1 / RFU, IPO11 / Fold change vs veh, IPO11 / RFU, DFFB / Fold change vs veh, DFFB / RFU, FOXP1 / Fold change vs veh, FOXP1 / RFU, CARD8 / Fold change vs veh, CARD8 / RFU, STRN3 / Fold change vs veh, STRN3 / RFU, ADK / Fold change vs veh, ADK / RFU, RASSF2 / Fold change vs veh, RASSF2 / RFU, WIPF1 / Fold change vs veh, WIPF1 / RFU, LARP1B / Fold change vs veh, LARP1B / RFU, RASA1 / Fold change vs veh, RASA1 / RFU, RB1 / Fold change vs veh, RB1 / RFU, PPFIA1 / Fold change vs veh, PPFIA1 / RFU, MAT2A / Fold change vs veh, MAT2A / RFU, CCT5 / Fold change vs veh, CCT5 / RFU, WDR92 / Fold change vs veh, WDR92 / RFU, CUX1 / Fold change vs veh, CUX1 / RFU, TTC7A / Fold change vs veh, TTC7A / RFU, TMEM135 / Fold change vs veh, TMEM135 / RFU, DEPTOR / Fold change vs veh, DEPTOR / RFU, CPM / Fold change vs veh, CPM / RFU, DNAJB6 / Fold change vs veh, DNAJB6 / RFU, CACNA2D3 / Fold change vs veh, CACNA2D3 / RFU, DTX4 / Fold change vs veh, DTX4 / RFU, TFCP2 / Fold change vs veh, TFCP2 / RFU, GMCL1 /// GMCL1P1 / Fold change vs veh, GMCL1 /// GMCL1P1 / RFU, AEBP2 / Fold change vs veh, AEBP2 / RFU, SNHG1 /// SNORD22 /// SNORD25 /// SNORD26 /// SNORD27 /// SNORD28 /// SNORD29 /// SNORD31 / Fold change vs veh, SNHG1 /// SNORD22 /// SNORD25 /// SNORD26 /// SNORD27 /// SNORD28 /// SNORD29 /// SNORD31 / Fold change (Aza/veh), C12orf56 (ProbeSet 11735607_a_at) / Fold change (ACY-1035/veh), C12orf56 (ProbeSet 11735607_a_at) / Fold change (Aza/veh), FGFR1OP (ProbeSet 11751329_s_at) / Fold change (ACY-1035/veh), FGFR1OP (ProbeSet 11751329_s_at) / Fold change (Aza/veh), VPS36 (ProbeSet 11739960_a_at) / Fold change (ACY-1035/veh), VPS36 (ProbeSet 11739960_a_at) / RFU SYPL1 (11715823_x_at) / Fold change /veh SYPL1 (11715823_x_at) / RFU IGFBP7 (11715501_s_at) / Fold change /veh IGFBP7 (11715501_s_at) / RFU REEP3 (11722064_at) / Fold change /veh REEP3 (11722064_at) / RFU IGLL1 (11728026_x_at) / Fold change /veh IGLL1 (11728026_x_at): dose or concentration left out as unconfirmed. As to conditions: MV-4-11 cells, 48 hours.

With `Nc1ccc(-c2cccs2)cc1NC(=O)c1ccc2c(c1)cc(C1CC1)n2CCN1CCOCC1` [ACY-1035], the “Fold change /veh REEP3 (11722064_at)” value was determined as 0.53.
